Experimental findings from PubChem BioAssay (NCI) are described below.

Some test systems named below: MCF7 breast; U251 CNS; SNB-19 CNS; 786-0 renal; A549 NSCLC; OVCAR-5 ovarian; SR leukemia; HOP-62 NSCLC; RPMI-8226 leukemia; OVCAR-8 ovarian.
Common to all, as to test: growth of human tumour cells (NCI), 48 h

SMILES strings stand for the structures.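 48-hour exposure; five concentrations; linearly interpolated endpoints. Abbreviation: GI50, concentration required for 50% inhibition of growth. The concentration for full growth arrest is given as TGI.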

Turning to `COc1cc(/C=C\c2cc(OC)c(OC)c(OC)c2)cc(N/C=C\C(=O)c2cc(OC)c(OC)c(OC)c2)c1OC`, the GI50 was 2.34 µM in the assay with MCF7 breast; 3.84 µM in the assay with U251 CNS; 4.49 µM with SNB-19 CNS; 3.76 µM in the assay with 786-0 renal; 5.14 µM with A549 NSCLC; 3.64 µM in the assay with OVCAR-5 ovarian. Further, the GI50 with SR leukemia is 2.03 µM; with HOP-62 NSCLC, 2.46 µM; in the assay with RPMI-8226 leukemia, 3.04 µM; in the assay on OVCAR-8 ovarian it was 4.7 µM. The TGI with MCF7 breast, in the assay with U251 CNS, in the assay on SNB-19 CNS, in the assay with 786-0 renal, with A549 NSCLC and with OVCAR-5 ovarian was more than 100 µM each time. Further, the TGI with SR leukemia, with HOP-62 NSCLC, in the assay with RPMI-8226 leukemia and in the assay on OVCAR-8 ovarian was more than 100 µM each time.

Consider `O=c1[nH]c2ccc(O)cc2o1`, for which the TGI in the assay on MCF7 breast, with U251 CNS, in the assay on SNB-19 CNS, with 786-0 renal, in the assay on A549 NSCLC and in the assay with OVCAR-5 ovarian was more than 100 µM throughout. Moreover, the TGI with SR leukemia, with HOP-62 NSCLC and with OVCAR-8 ovarian was more than 100 µM throughout.

`COc1ccc(C(O)(CCC(C)C)C(CN2CCOCC2)c2ccc(Cl)cc2)cc1` (stereo not drawn): the GI50 in the assay with MCF7 breast is 10.4 µM; in the assay on U251 CNS it was 12.3 µM; in the assay with SNB-19 CNS it was 14.8 µM; in the assay with 786-0 renal, 14 µM; in the assay on A549 NSCLC, 11.6 µM; in the assay on OVCAR-5 ovarian it was 12.2 µM. For the same compound, the GI50 in the assay with SR leukemia is 10.4 µM; in the assay on HOP-62 NSCLC, 18.8 µM; in the assay with RPMI-8226 leukemia, 8.76 µM; with OVCAR-8 ovarian, 16.1 µM. Besides, the TGI is 24.6 µM in the assay with MCF7 breast; 26.3 µM in the assay on U251 CNS; 52.4 µM in the assay on SNB-19 CNS; 28.6 µM with 786-0 renal; 35 µM in the assay with A549 NSCLC; 25.7 µM in the assay with OVCAR-5 ovarian. The TGI in the assay on SR leukemia was 28.9 µM; in the assay on HOP-62 NSCLC, 37.4 µM; in the assay on RPMI-8226 leukemia, 31.2 µM; with OVCAR-8 ovarian, 41.5 µM.

For `CN(C)CCSc1cc(-c2ccccc2)c2ccccc2n1`, the TGI stood at 27.8 µM in the assay on MCF7 breast; 22.5 µM with U251 CNS; 28.5 µM in the assay on SNB-19 CNS; 25.2 µM in the assay on 786-0 renal; 28.5 µM in the assay on A549 NSCLC; 26.2 µM in the assay with OVCAR-5 ovarian. For the same compound, the TGI with SR leukemia is more than 100 µM; in the assay with HOP-62 NSCLC it was 22.9 µM; in the assay with RPMI-8226 leukemia it was more than 100 µM; in the assay with OVCAR-8 ovarian it was 58.5 µM.

As to `CC(C)OC(=O)[C@H](C)NP(=O)(OC[C@H]1O[C@@H](n2ccc(=O)[nH]c2=O)[C@](C)(F)[C@@H]1O)Oc1ccccc1` (stereo partly drawn), the GI50 with MCF7 breast, with U251 CNS, in the assay on SNB-19 CNS, with 786-0 renal, in the assay with A549 NSCLC and in the assay with OVCAR-5 ovarian was more than 100 µM throughout. The GI50 in the assay on SR leukemia, in the assay on HOP-62 NSCLC and in the assay with OVCAR-8 ovarian was more than 100 µM each time. The TGI in the assay on MCF7 breast, with U251 CNS, in the assay on SNB-19 CNS, in the assay on 786-0 renal, in the assay with A549 NSCLC and with OVCAR-5 ovarian was more than 100 µM in each case. Moreover, the TGI with SR leukemia, in the assay with HOP-62 NSCLC and with OVCAR-8 ovarian was more than 100 µM in each case.

As for `COc1ccc(C2=C(c3ccc(OC)cc3)C(=O)N3CCCC3C2)cc1` (stereo not drawn), the GI50 in the assay on MCF7 breast was 12.8 µM; in the assay on U251 CNS, 5.99 µM; with SNB-19 CNS, 45.6 µM; in the assay with 786-0 renal, 9.92 µM; with A549 NSCLC, 9.42 µM; with OVCAR-5 ovarian it was more than 83.7 µM. Further, the GI50 in the assay on SR leukemia was more than 37.1 µM; in the assay with HOP-62 NSCLC it was 16.5 µM; in the assay on RPMI-8226 leukemia it was more than 100 µM; in the assay on OVCAR-8 ovarian it was 10.4 µM. Moreover, the TGI in the assay with MCF7 breast, in the assay on U251 CNS, with SNB-19 CNS, with 786-0 renal, with A549 NSCLC and in the assay on OVCAR-5 ovarian was more than 100 µM each time. In addition, the TGI in the assay with SR leukemia, in the assay with HOP-62 NSCLC, in the assay on RPMI-8226 leukemia and in the assay on OVCAR-8 ovarian was more than 100 µM throughout.

Turning to `COC(=O)c1ccc(-c2c(C#N)[n+](=O)c3cc(Cl)c(Cl)cc3n2[O-])cc1`, the GI50 is 19.2 µM with MCF7 breast; 16.7 µM in the assay with U251 CNS; 18.2 µM with SNB-19 CNS; 17.6 µM with 786-0 renal; 47.4 µM in the assay with A549 NSCLC; 19.2 µM with OVCAR-5 ovarian. The GI50 with HOP-62 NSCLC was 16.8 µM; in the assay with RPMI-8226 leukemia, 29.8 µM; in the assay with OVCAR-8 ovarian it was 24.3 µM. Moreover, the TGI was 42.1 µM with MCF7 breast; 44.9 µM in the assay with U251 CNS; 38.9 µM in the assay on SNB-19 CNS; 35.6 µM with 786-0 renal; more than 100 µM in the assay with A549 NSCLC; 39.4 µM in the assay on OVCAR-5 ovarian. Besides, the TGI in the assay with HOP-62 NSCLC is 34.8 µM; with RPMI-8226 leukemia, 83.4 µM; with OVCAR-8 ovarian it was 55.6 µM.

Turning to `CN(C)c1ncnc2c1ncn2CCn1cnc2c(N(C)C)ncnc21`, the TGI in the assay on MCF7 breast, in the assay on U251 CNS, in the assay on SNB-19 CNS, with 786-0 renal, in the assay with A549 NSCLC and with OVCAR-5 ovarian was more than 100 µM in each case. For the same compound, the TGI in the assay with SR leukemia, in the assay with HOP-62 NSCLC, with RPMI-8226 leukemia and in the assay with OVCAR-8 ovarian was more than 100 µM each time.

Turning to `COc1ccc(-c2nsc3c2NC(=O)CC3c2cccc(OC)c2)cc1` (stereo not drawn), the GI50 is 0.55 µM in the assay on MCF7 breast; 1.83 µM in the assay with U251 CNS; 3.47 µM in the assay with SNB-19 CNS; 12.5 µM in the assay with 786-0 renal; 0.714 µM in the assay on A549 NSCLC; 3.79 µM in the assay on OVCAR-5 ovarian. The GI50 in the assay with HOP-62 NSCLC is 2.41 µM; in the assay with RPMI-8226 leukemia it was 1.61 µM; with OVCAR-8 ovarian it was 3.22 µM. The TGI in the assay with MCF7 breast, in the assay on U251 CNS, with SNB-19 CNS, with 786-0 renal, in the assay with A549 NSCLC and with OVCAR-5 ovarian was more than 100 µM throughout. Besides, the TGI in the assay with HOP-62 NSCLC is 33.9 µM; with RPMI-8226 leukemia, more than 100 µM; in the assay on OVCAR-8 ovarian it was more than 100 µM.
